Measured values taken from patent US8778966B2, “Quinolinone derivatives as PARP and tank inhibitors” (Janssen Pharmaceutica, NV, priority 2007, dated 2014).

How the values were obtained:
HCT116 cells = experiment: Antiproliferative activity, Alamar Blue assay, HCT116 cells; assay type: cell-based, human; conditions: Homo sapiens, HCT-116, HCT116 cells; read-out: HCT116 antiproliferative activity pIC50 (converted)
Method: Human colon carcinoma HCT116 cells obtained from the ATCC were cultured in McCoy's 5 A medium supplemented with 2 mM L-Glutamine, 50 μg/ml gentamicin and 10% heat inactivated fetal calf serum.
(§1) Resazurin was purchased from Aldrich (Prod. No. 199303). Potassium ferrocyanide, potassium ferricyanide, KH2PO4 and K2HPO4 were purchased from Sigma (Prod. Nos. P9387, P8131, P5655 and P8281, respectively).
(§2) Potassium Phosphate Buffer 0.1 M (PPB) was made as follows: 2.72 gram KH2PO4 and 13.86 gram K2HPO4 were dissolved in 500 ml milli-Q H2O, the pH was adjusted to pH 7.4 and the volume was brought to 1 litre with milli-Q H2O; the buffer was filter sterilised and stored at room temperature. Resazurin stock solution (PPB-A) was prepared fresh by dissolving 45 mg resazurin in 15 ml PBS. 30 mM potassium ferricyanide (PPB-B) was prepared by dissolving 0.987 gram potassium ferricyanide in 100 ml PPB. 30 mM potassium ferrocyanide (PPB-C) was prepared by dissolving 1.266 gram potassium ferrocyanide in 100 ml PPB.
(§3) Mixture of PPB-A, PPB-B and PPB-C was prepared by mixing equal volumes of the respective solutions. Resazurin work solution (herein termed “Alamar Blue” solution) was prepared by diluting said mixture 20×(vol/vol) in PPB and filter sterilising; the Alamar Blue solution could be kept at 4° C. for a maximum of 2 weeks.
(§4) For experiments in 384 wells plates the cells were seeded at a density of 4.5×10^3 cells/ml in Falcon 384-well culture plates (Life Technologies, Merelbeke, Belgium), black with clear bottom, in 45 μl culture medium. Cells were allowed to adhere to plastic for 24 hr. The tested compound was pre-diluted (1/50 in culture medium) and 5 μl pre-diluted compound was added to the wells. Following 4-day incubation, 10 μl of the Alamar Blue solution was added to each well and the cells were further incubated for 4 hrs (HCT116) or 24 hrs (PC-3) at 37° C. The fluorescence intensity was measured for each well on a Fluorescence plate reader (Fluorskan, Labsystems, 540 nm excitation and 590 nm emission)
(§5) The antiproliferative activity was calculated as percentage of remaining viable cells in treated versus control (untreated cells) conditions. Within an experiment, the result for each experimental condition is the mean of 3 replicate wells. When appropriate, the experiments were repeated to establish full concentration-response curves. When appropriate, IC50-values (concentration of the drug, needed to reduce cell growth to 50% of the control) were computed using probit analysis for graded data (Finney, D. J., Probit Analyses, 2nd Ed. Chapter 10, Graded Responses, Cambridge University Press, Cambridge 1962). Herein the effects of test compounds are expressed as pIC50 (the negative log value of the IC50-value) (see Table 2).

PC-3 cells = experiment: Antiproliferative activity, Alamar Blue assay, PC-3 cells; assay type: cell-based, human; conditions: Homo sapiens, PC-3, PC3 cells; read-out: PC3 antiproliferative activity pIC50 (converted)
Method: Human prostate cancer PC-3 cells obtained from the ATCC were cultured in HAM′S F12 medium supplemented with 1 mM Sodium Pyruvate, 1.5 g/L Sodium Bicarbonate, 50 μg/ml gentamicin, non-essential amino acids and 10% fetal calf serum.
as §1, §2, §3, §4, §5

Human PARP-1 enzyme = target: T1, Human PARP-1 enzyme (Homo sapiens, UniProt P09874); experiment: In vitro Scintillation Proximity Assay (SPA) for PARP-1 inhibitory activity; assay type: biochemical; conditions: read-out: in vitro SPA assay PARP-1 pIC50 (converted)
T1 construct: purchased Trevigen
T1 sequence (P09874 whole entry): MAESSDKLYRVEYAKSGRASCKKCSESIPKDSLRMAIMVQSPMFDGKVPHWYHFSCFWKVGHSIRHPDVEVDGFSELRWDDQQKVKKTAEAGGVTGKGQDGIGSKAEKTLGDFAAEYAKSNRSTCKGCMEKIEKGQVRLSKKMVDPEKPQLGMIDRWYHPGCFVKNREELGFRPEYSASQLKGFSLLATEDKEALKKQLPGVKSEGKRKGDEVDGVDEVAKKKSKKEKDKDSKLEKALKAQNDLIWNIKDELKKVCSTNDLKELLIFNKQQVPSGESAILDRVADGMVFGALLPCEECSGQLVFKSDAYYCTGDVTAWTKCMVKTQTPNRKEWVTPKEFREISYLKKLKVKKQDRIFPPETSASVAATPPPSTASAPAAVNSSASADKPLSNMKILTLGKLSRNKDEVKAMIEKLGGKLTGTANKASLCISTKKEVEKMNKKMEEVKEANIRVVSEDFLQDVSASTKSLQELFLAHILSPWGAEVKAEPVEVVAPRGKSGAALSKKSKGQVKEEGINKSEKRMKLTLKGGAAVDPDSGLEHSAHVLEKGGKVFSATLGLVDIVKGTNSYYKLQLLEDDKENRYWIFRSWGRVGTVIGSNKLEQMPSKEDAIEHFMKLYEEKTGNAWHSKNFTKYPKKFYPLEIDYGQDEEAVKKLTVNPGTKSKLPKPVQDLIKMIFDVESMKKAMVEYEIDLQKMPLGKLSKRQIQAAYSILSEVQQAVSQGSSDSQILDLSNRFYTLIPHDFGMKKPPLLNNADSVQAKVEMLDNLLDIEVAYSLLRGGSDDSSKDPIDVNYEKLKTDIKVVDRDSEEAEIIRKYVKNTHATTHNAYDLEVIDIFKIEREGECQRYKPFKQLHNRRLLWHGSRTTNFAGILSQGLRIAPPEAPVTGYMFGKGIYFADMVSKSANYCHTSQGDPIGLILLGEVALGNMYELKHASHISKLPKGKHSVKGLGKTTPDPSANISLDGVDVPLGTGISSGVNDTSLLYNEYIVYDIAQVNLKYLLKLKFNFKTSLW
Method: Compounds of the present invention were tested in an in vitro assay based on SPA technology (proprietary to GE healthcare).
In principle, the assay relies upon the well established SPA technology for the detection of poly(ADP-ribosyl)ation of biotinylated target proteins, i.e histones. This ribosylation is induced using nicked DNA activated PARP-1 enzyme and [^3H]-nicotinamide adenine dinucleotide ([^3H]-NAD^+) as ADP-ribosyl donor.
Histones (type II-A, supplier: Sigma) were biotinylated using the biotinylation kit of Amersham and stored aliquoted at −20° C. A stock solution of 100 mg/ml SPA poly(vinyl toluene) (PVT) beads (supplier: Amersham) was made in PBS. A stock solution of 61.6 nM [^3H]-NAD^+ was made by adding [^3H]-NAD^+ (0.1 mCi/ml, supplier: Perkin Elmer) to incubation buffer (50 mM Tris/HCl, pH 8; 0.2 mM DTT; 4 mM MgCl2). A solution of 4 mM NAD^+ (supplier: Sigma) was made. Human PARP-1 enzyme was obtained from Trevigen. Biotinylated histones and PVT-SPA beads were mixed and pre-incubated for 30 min. at room temperature. PARP-1 enzyme (concentration was lot dependent) was mixed with the nicked DNA and the mixture was pre-incubated for 30 min. at 4° C. Equal parts of this histones/PVT-SPA beads solution and PARP-1 enzyme/DNA solution were mixed and 75 μl of this mixture together with 1 μl of compound in DMSO and 25 μl of [^3H]-NAD^+ was added per well into a 96-well microtiterplate. The final concentrations in the incubation mixture were 2 μg/ml for the biotinylated histones, 2 mg/ml for the PVT-SPA beads, 0.25 μg/ml for the nicked DNA and between 0.1-0.2 μg/ml for the PARP-1 enzyme. After incubation of the mixture for 20 min. at room temperature, the reaction was terminated by adding 100 μl of 4 mM NAD^+ in water (final concentration 2 mM) and plates were mixed. The beads were sedimented by centrifugation (10 min, 800 rpm). and plates transferred to a TopCountNXT™ (Packard) for scintillation counting, values were expressed as counts per minute (cpm). For each experiment, controls (containing PARP-1 enzyme and DMSO without compound), a blank incubation (containing DMSO but no PARP-1 enzyme, no DNA or compound) and samples (containing PARP-1 enzyme, DNA and compound dissolved in DMSO) were run in parallel. All compounds tested were dissolved and eventually further diluted in DMSO. A dose-response curve was made wherein the compounds were tested at concentrations between 10^−5M and 3×10^−9M. In each test, the blank value was subtracted from both the control and the sample values. The control sample represented maximal PARP-1 enzyme activity. For each sample, the amount of cpm was expressed as a percentage of the mean cpm value of the controls. When appropriate, IC50-values (concentration of the drug, needed to reduce the PARP-1 enzyme activity to 50% of the control) were computed using linear interpolation between the experimental points just above and below the 50% level. Herein the effects of test compounds are expressed as pIC50 (the negative log value of the IC50-value). As a reference compound, 4-amino-1,8-naphthalimide was included to validate the SPA assay.

PC3 cells = experiment: EB1 Comet (microtubule disruption) assay; assay type: cell-based, human; conditions: Homo sapiens, PC-3, 1 h, 1 hour treatment, read-out: EB1 pLAC (converted)
Method: The Eb1 Comet assay relies on the detection of the Eb1 protein at the plus end of polymerizing microtubules (Mimori-Kiyosue, 2000) using indirect immunofluorescence. Disruption of microtubule dynamics through de-polymerization or stabilization results in a de-localization of Eb1 from the growing microtubule ends and this is visualized by the disappearance of Eb1 containing cytoplasmic foci.
Briefly, human prostate cancer PC3 cells obtained from the American Type Culture Collection were grown in 96-well plates (Greiner, cat. no. 655090) in HAM's F12 medium as recommended by the provider (ATCC). The cells were treated for 1 hour at 37° C. with compounds dissolved in DMSO (0.6% final DMSO concentration). The culture medium was then removed by aspiration and the cells were fixed by adding cold methanol (−20 C). After a 15 min. incubation at −20 C, the cells were washed twice with DPBS (Gibco) containing 0.5% Triton X-100. Mouse Eb1 antibody (BD Transduction Laboratories, cat. no. 610534) was added to the cells (1/250 dilution in DPBS containing 1% BSA) and incubated overnight at room temperature. The antibody was subsequently removed and the cells washed twice with DPBS, 0.5% Triton X-100. Secondary goat anti-mouse antibody conjugated to Alexa 488 fluorescent dye (Molecular Probes) was added at a 1/500 dilution in DPBS, 1% BSA and incubated for 1 hour at 37 C. The cells were washed twice with DPBS, 0.5% Triton X-100 and then DPBS containing 0.5% Triton X-100 and 1/5000 Hoechst 33342 (Molecular Probes) was added. Microscopy based Eb1 foci visualization was carried out using an IN Cell Analyser 1000 (Amersham Biosciences) using a 20× objective. Compound dependent microtubule disruption was visually determined by the disappearance in Eb1 foci. The lowest active concentration (LAC) was determined as the concentration where Eb1 foci were absent in at least 50% of the treated cells.

Compound | melting point [°C] | IC50 (HCT116 cells) [nM] | IC50 (PC-3 cells) [nM] | IC50 (Human PARP-1 enzyme) [nM] | minimal effective concentration (PC3 cells) [µM]
CCc1cc2ccc(C(C)(C#N)Cc3ccc(OCCCN4CCOCC4)c(C#N)c3)cc2[nH]c1=O (centres unmarked) [Compound 5] | 153 | – | – | – | –
Cc1cc2ccc([C@](C)(C#N)[C@H]3CCCc4ccccc43)cc2[nH]c1=O [Compound 383] | – | 501 | 1260 | 501 | 3.16

Further lines, with some results ahead:

melting point [°C] | IC50 (HCT116 cells) [nM] | IC50 (PC-3 cells) [nM] | IC50 (Human PARP-1 enzyme) [nM] | Compound | minimal effective concentration (PC3 cells) [µM]
150 | – | – | – | CCc1cc2ccc(C(C)(C#N)Cc3cccc(CC#N)c3)cc2[nH]c1=O (centres unmarked) | –
174 | – | – | – | CCc1cc2ccc(C(C)(C#N)Cc3cccc(C#N)c3C)cc2[nH]c1=O (centres unmarked) [Compound 4] | –
– | 3980 | 5010 | 398 | Cc1cc2ccc(C(C)(C#N)Cc3cccc(C#CC(C)(C)O)n3)cc2[nH]c1=O (centres unmarked) [Compound 401] | 3.16
